# Test results published in PubChem BioAssay AID330 (DTP/NCI, 2004).
# Where “and” joins values, the source holds several entries; their conditions need not be identical. Identical values can stand only once. Toxic doses and inconclusive results are not listed.
# Tested on: P388 leukemia ip, CD2F1 mice, survival T/C
# Experiment: NCI In Vivo Anticancer Drug Screen. Data for tumor model P388 Leukemia (intraperitoneal) in CD2F1 (CDF1) mice
# Conditions: endpoint: median survival time, higher = longer survival
# Method in brief: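 Mice carrying the transplanted tumor received test compound or vehicle. Survival was recorded in each group, and the value is the treated-group measurement divided by that of the vehicle-treated control group.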
# [1] = dose: 50.0 mg/kg/injection, schedule: Q01DX009 (ip), vehicle: saline
# [2] = dose: 100.0 mg/kg/injection, schedule: Q01DX009 (ip), vehicle: saline
# [3] = dose: 200.0 mg/kg/injection, schedule: Q01DX009 (ip), vehicle: saline
# [4] = dose: 25.0 mg/kg/injection, schedule: Q01DX009 (ip), vehicle: saline
# [5] = dose: 100.0 mg/kg/injection, schedule: Q01DX009 (ip), vehicle: saline with Tween-80
# [6] = dose: 60.0 mg/kg/injection, schedule: Q01DX005 (ip), vehicle: saline with Tween-80
# [7] = dose: 120.0 mg/kg/injection, schedule: Q01DX005 (ip), vehicle: saline with Tween-80
# [8] = dose: 240.0 mg/kg/injection, schedule: Q01DX005 (ip), vehicle: saline with Tween-80
# [9] = dose: 50.0 mg/kg/injection, schedule: Q01DX009 (ip), vehicle: saline with Tween-80
# [10] = dose: 100.0 mg/kg/injection, schedule: Q04DX003 (ip), vehicle: saline with Tween-80
# [11] = dose: 200.0 mg/kg/injection, schedule: Q01DX009 (ip), vehicle: saline with Tween-80
# [12] = dose: 50.0 mg/kg/injection, schedule: Q01DX005 (ip), vehicle: Klucel (hydroxypropylcellulose) (HPC)
# [13] = dose: 100.0 mg/kg/injection, schedule: Q01DX005 (ip), vehicle: Klucel (hydroxypropylcellulose) (HPC)
# [14] = dose: 200.0 mg/kg/injection, schedule: Q01DX005 (ip), vehicle: Klucel (hydroxypropylcellulose) (HPC)
# [15] = dose: 200.0 mg/kg/injection, schedule: Q04DX003 (ip), vehicle: saline with Tween-80
# [16] = dose: 400.0 mg/kg/injection, schedule: Q04DX003 (ip), vehicle: saline with Tween-80
# [17] = dose: 50.0 mg/kg/injection, schedule: Q01DX005 (ip), vehicle: saline with Tween-80
# [18] = dose: 100.0 mg/kg/injection, schedule: Q01DX005 (ip), vehicle: saline with Tween-80
# [19] = dose: 200.0 mg/kg/injection, schedule: Q01DX005 (ip), vehicle: saline with Tween-80
structure (smiles),measurement,setting,value
NOCc1cccc([N+](=O)[O-])c1,T/C,[1],104 % of control
same,T/C,[2],95 % of control
same,T/C,[3],100 % of control
CC(OC(=O)c1ccccc1C(=O)O)c1ccccc1 (stereo not given),T/C,"dose: 12.5 mg/kg/injection, schedule: Q01DX009 (ip), vehicle: saline",91 % of control
same,T/C,[4],99 % of control and 101 % of control
same,T/C,[1],101 % of control and 108 % of control and 98 % of control
same,T/C,[2],104 % of control
same,T/C,[3],186 % of control
COc1cc2c3c(c1O)-c1cc4c(cc1CC3N(C)CC2)OCO4 (stereo not given),T/C,"dose: 10.0 mg/kg/injection, schedule: Q01DX009 (ip), vehicle: saline with Tween-80",102 % of control
same,T/C,"dose: 20.0 mg/kg/injection, schedule: Q01DX009 (ip), vehicle: saline with Tween-80",104 % of control
same,T/C,"dose: 40.0 mg/kg/injection, schedule: Q01DX009 (ip), vehicle: saline with Tween-80",98 % of control
same,T/C,"dose: 100.0 mg/kg/injection, schedule: Q04DX002 (ip), vehicle: saline with Tween-80",97 % of control
C[n+]1c(/C=N/NC(N)=S)ccc2ccccc21,T/C,[5],118 % of control
O=C(C(=O)C(F)(F)C(F)(F)C(F)(F)F)c1ccccc1,T/C,"dose: 50.0 mg/kg/injection, schedule: Q01DX005 (ip), vehicle: saline + Tween-80 + alcohol",102 % of control
same,T/C,"dose: 100.0 mg/kg/injection, schedule: Q01DX005 (ip), vehicle: saline + Tween-80 + alcohol",97 % of control
CN(C)C(CS(=O)(=O)c1ccccc1)c1ccccc1 (stereo not given),T/C,"dose: 60.0 mg/kg/injection, schedule: Q01DX005 (ip), vehicle: Klucel (hydroxypropylcellulose) (HPC)",100 % of control
same,T/C,"dose: 120.0 mg/kg/injection, schedule: Q01DX005 (ip), vehicle: Klucel (hydroxypropylcellulose) (HPC)",91 % of control
same,T/C,"dose: 240.0 mg/kg/injection, schedule: Q01DX005 (ip), vehicle: Klucel (hydroxypropylcellulose) (HPC)",91 % of control
Cc1ccno1,T/C,[1],105 % of control
same,T/C,[2],105 % of control
same,T/C,[3],105 % of control
same,T/C,"dose: 400.0 mg/kg/injection, schedule: Q01DX009 (ip), vehicle: saline",100 % of control
Cc1cc(=O)c2c(ccc3[nH]c(-c4ccco4)nc32)[nH]1,T/C,"dose: 100.0 mg/kg/injection, schedule: Q01DX001 (ip), vehicle: saline with Tween-80",94 % of control
same,T/C,"dose: 200.0 mg/kg/injection, schedule: Q01DX001 (ip), vehicle: saline with Tween-80",100 % of control
same,T/C,"dose: 400.0 mg/kg/injection, schedule: Q01DX001 (ip), vehicle: saline with Tween-80",92 % of control
CCOC(=O)N1OC2C=CC1CC2 (stereo not given),T/C,[6],97 % of control
same,T/C,[7],102 % of control
same,T/C,[8],100 % of control
O=C1NC(=O)c2c(Br)c(Br)c(Br)c(Br)c21,T/C,"dose: 50.0 mg/kg/injection, schedule: Q01DX009 (ip), vehicle: Klucel (hydroxypropylcellulose) (HPC)",109 % of control
same,T/C,"dose: 100.0 mg/kg/injection, schedule: Q01DX009 (ip), vehicle: Klucel (hydroxypropylcellulose) (HPC)",109 % of control
same,T/C,"dose: 200.0 mg/kg/injection, schedule: Q01DX009 (ip), vehicle: Klucel (hydroxypropylcellulose) (HPC)",105 % of control
same,T/C,"dose: 400.0 mg/kg/injection, schedule: Q01DX009 (ip), vehicle: Klucel (hydroxypropylcellulose) (HPC)",96 % of control
Fc1ccccc1CSc1ncnc2nc[nH]c12,T/C,[9],100 % of control
same,T/C,[5],100 % of control
same,T/C,[10],104 % of control
same,T/C,"dose: 132.0 mg/kg/injection, schedule: Q04DX003 (ip), vehicle: saline with Tween-80",100 % of control
same,T/C,[11],100 % of control
Cc1cc(/C=C2/OC(=O)c3ccccc32)cc(C)c1O,T/C,"dose: 100.0 mg/kg/injection, schedule: Q04DX002 (ip), vehicle: saline",94 % of control
same,T/C,"dose: 200.0 mg/kg/injection, schedule: Q04DX002 (ip), vehicle: saline",97 % of control
same,T/C,"dose: 400.0 mg/kg/injection, schedule: Q04DX002 (ip), vehicle: saline",97 % of control
CCO/C=C1/N=C(COc2ccc(Cl)cc2C)OC1=O,T/C,[6],101 % of control
same,T/C,[7],108 % of control
same,T/C,[8],95 % of control
CCOP(=O)(Nc1ccc2c(c1)Cc1c-2cc(Br)c(NC(C)=O)c1Br)OCC,T/C,[12],94 % of control
same,T/C,[13],94 % of control
same,T/C,[14],96 % of control
NC(CO)C(=O)O (stereo not given),T/C,"dose: 12.5 mg/kg/injection, schedule: Q01DX009 (ip), vehicle: saline with Tween-80",102 % of control
same,T/C,"dose: 25.0 mg/kg/injection, schedule: Q01DX009 (ip), vehicle: saline with Tween-80",105 % of control
same,T/C,[4],110 % of control
same,T/C,[9],114 % of control
same,T/C,[1],112 % of control [middle of 4 runs]
same,T/C,[2],104 % of control [middle of 4 runs]
same,T/C,[10],99 % of control
same,T/C,[3],110 % of control [middle of 4 runs]
same,T/C,[15],97 % of control
same,T/C,[16],100 % of control
N#CC(C#N)(c1ccccc1)N1CCOCC1,T/C,"dose: 25.0 mg/kg/injection, schedule: Q04DX003 (ip), vehicle: saline",109 % of control
same,T/C,"dose: 50.0 mg/kg/injection, schedule: Q04DX003 (ip), vehicle: saline",100 % of control
same,T/C,[10],100 % of control
same,T/C,"dose: 100.0 mg/kg/injection, schedule: Q04DX003 (ip), vehicle: saline",104 % of control
same,T/C,[15],96 % of control
COc1cc(C(NC(=O)N2C(=O)C=CC2=O)NC(=O)N2C(=O)C=CC2=O)ccc1O,T/C,[17],106 % of control
same,T/C,[18],100 % of control
same,T/C,[19],100 % of control
O=[N+]([O-])c1c(-c2ccccc2)csc1SSc1scc(-c2ccccc2)c1[N+](=O)[O-],T/C,[10],103 % of control
same,T/C,[15],96 % of control
same,T/C,[16],100 % of control
CC(C)(C)C1NC(C(C)(C)C)N2C(C(C)(C)C)N12 (stereo not given),T/C,"dose: 100.0 mg/kg/injection, schedule: Q01DX001 (ip), vehicle: Klucel (hydroxypropylcellulose) (HPC)",100 % of control
same,T/C,"dose: 200.0 mg/kg/injection, schedule: Q01DX001 (ip), vehicle: Klucel (hydroxypropylcellulose) (HPC)",90 % of control
same,T/C,"dose: 400.0 mg/kg/injection, schedule: Q01DX001 (ip), vehicle: Klucel (hydroxypropylcellulose) (HPC)",102 % of control
Cc1cc([N+](=O)[O-])c(C)c(Br)c1C,T/C,[9],90 % of control
same,T/C,[5],92 % of control
same,T/C,[11],99 % of control
N#Cc1c(C(F)(F)F)cc(-c2cccs2)nc1SC(C(=O)Nc1c(F)cccc1F)c1ccccc1 (stereo not given),T/C,[12],94 % of control
same,T/C,[13],94 % of control
same,T/C,[14],94 % of control
CC(C)C1CS1=O (stereo not given),T/C,"dose: 60.0 mg/kg/injection, schedule: Q01DX005 (ip), vehicle: saline",97 % of control
same,T/C,"dose: 120.0 mg/kg/injection, schedule: Q01DX005 (ip), vehicle: saline",97 % of control
same,T/C,"dose: 240.0 mg/kg/injection, schedule: Q01DX005 (ip), vehicle: saline",109 % of control
NC(Cc1ccc(O)cc1)C(=O)N/N=C/c1cccc2ccccc12 (stereo not given),T/C,[17],92 % of control
same,T/C,[18],90 % of control
same,T/C,[19],89 % of control
CN1CNC(=O)NC1,T/C,[1],107 % of control
same,T/C,[2],100 % of control and 106 % of control
same,T/C,[3],99 % of control and 101 % of control
O=c1cc(CSc2ncnc3nc[nH]c23)[nH]c(=O)[nH]1,T/C,[1],106 % of control
same,T/C,[2],111 % of control
same,T/C,[3],108 % of control
COc1cccc2c1ccc1nonc12,T/C,[17],95 % of control
same,T/C,[18],88 % of control
same,T/C,[19],86 % of control
CCc1c2c(cc3c1[nH]c1ccccc13)C(=O)NC2=O,T/C,"dose: 25.0 mg/kg/injection, schedule: Q01DX005 (ip), vehicle: Klucel (hydroxypropylcellulose) (HPC)",99 % of control
same,T/C,[12],90 % of control and 92 % of control
same,T/C,[13],97 % of control
same,T/C,[14],94 % of control
